Like-named read-outs stand apart in the source and are kept apart here. Numbered stars: 1 amine (or outer) side, 2 acyl side, 3 side chain; on linkers, the order of the positions; unused ones are H or OH. Square brackets hold non-standard residues; d marks the D form. Side chains are listed from the residue outwards. Peptide text beside a SMILES is read from it. * marks the point of attachment. C20 diacid = O=C(O)CCCCCCCCCCCCCCCCCCC(=O)*; γGlu = O=C(O)[C@H](CCC(=O)[*:2])N[*:1]; αMeL = CC(C)C[C@](C)(N)C(=O)O; AEEA = NCCOCCOCC(=O)O; Aib = CC(C)(N)C(=O)O
Legend:
human Gcg receptor = molecular target: T1, human Gcg receptor (Homo sapiens, UniProt P47871); assay: [125I]-Glucagon binding (SPA), human Gcg receptor
T1 construct: expressed in transfected cells; crude membranes
Procedure, shortened: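 Scintillation counts are taken after membranes and WGA beads incubate and settle for 12 hours at room temperature. Buffer is 25 mM HEPES, pH 7.4, with CaCl2, MgCl2, bacitracin and Tween-20. Ki values, from four-parameter IC50 fits, are geometric means over independent days.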

human GIP receptor = molecular target: T2, human GIP receptor (Homo sapiens, UniProt P48546); assay: [125I]-GIP binding (SPA), human GIP receptor
T2 construct: expressed in transfected cells; crude membranes
T2 sequence (P48546 22-466): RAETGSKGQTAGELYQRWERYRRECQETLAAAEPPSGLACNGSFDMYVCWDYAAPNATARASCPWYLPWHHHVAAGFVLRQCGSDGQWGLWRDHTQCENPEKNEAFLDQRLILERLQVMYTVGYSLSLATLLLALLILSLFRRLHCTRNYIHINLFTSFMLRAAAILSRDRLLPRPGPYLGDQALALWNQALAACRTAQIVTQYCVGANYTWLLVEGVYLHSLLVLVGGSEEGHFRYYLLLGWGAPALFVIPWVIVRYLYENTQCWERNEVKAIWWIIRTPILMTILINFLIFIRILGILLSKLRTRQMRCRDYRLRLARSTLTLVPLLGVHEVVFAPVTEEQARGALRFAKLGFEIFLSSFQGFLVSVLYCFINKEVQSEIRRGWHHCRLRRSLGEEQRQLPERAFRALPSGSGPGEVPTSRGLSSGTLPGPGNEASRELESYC

[1] = molecular target: human GLP-1 receptor (GLP-1R) (Homo sapiens, UniProt P43220); assay: cAMP pharmacological functional assay in presence of casein, hGLP-1R; assay type: cell-based
[2] = molecular target: T3, gastric inhibitory peptide receptor (GIPR) (Homo sapiens, UniProt P48546); assay: cAMP pharmacological functional assay in presence of casein, hGIPR; assay type: cell-based
T3 sequence (P48546 22-466): T2 sequence (P48546 22-466)

human GLP-1R [3] = molecular target: T4, human GLP-1R (Homo sapiens, UniProt P43220); assay: [125I]-GLP-1 binding (SPA), human GLP-1 receptor; set-up: expressed in transfected cells; crude membranes
Procedure, shortened: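 Membranes: hypotonic lysis (50 mM Tris HCl, pH 7.5, protease inhibitors), Potter-Elvehjem homogenization, high-speed pellet (35000×g 1 h or 25000×g 30 min, 4° C.). Buffer: 25 mM HEPES pH 7.4, 2.5 mM CaCl2, 1 mM MgCl2. Four-parameter IC50 fit; Ki as geometric mean ± SEM.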

human GLP-1R [4] = molecular target: T4, human GLP-1R; assay: GLP-1R CHO cell β-arrestin recruitment assay; assay type: cell-based; set-up: host or cells: CHO-K1 PathHunter cells, assay-ready frozen; conditions: for hGLP1R B-Arrestin2 % Top: normalized to GLP-1 maximum control
Procedure, shortened: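 Peptide-induced β-arrestin-2 recruitment measured by enzyme-fragment complementation luminescence after 90 min at 37 °C plus 60 min detection at RT.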

human GLP-1R [5] = molecular target: T4, human GLP-1R; assay: GLP-1R HEK293 cell membrane [35S]GTPγS binding assay; assay type: biochemical; set-up: expressed in transfected cells; host or cells: HEK293 cells expressing human GLP-1R; membranes
Procedure, shortened: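 Agonist-driven Gαs activation read as [35S]GTPγS ([…]) binding to receptor-expressing HEK293 membranes, 30 min at room temperature, pH 7.4. Detection by anti-Gαs immunocapture on scintillation beads; EC50 derived from four-parameter logistic concentration-response fit.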

[6] = read-out: hGLcgR Ki, nM (SEM, n)
[7] = read-out: hGIPR Ki, nM (SEM, n)
[8] = HEK293 cells expressing hGLP-1R, 0.1% Casein, geometric mean, read-out: hGLP1R cAMP Rel EC50 nM (SEM, n)
[9] = HEK293 cells expressing hGIPR, 0.1% Casein, geometric mean, read-out: hGIPR cAMP Rel EC50 nM (SEM, n)
[10] = read-out: hGLP1R Ki, (nM) (SEM, n)
[11] = CHO-K1 cells, PathHunter β-arrestin-2 recruitment, 0.1% casein, read-out: hGLP1R B-Arrestin2 Rel EC50 uM (SEM, n)
[12] = HEK293 cell membranes expressing human GLP-1R, [35S]GTPγS binding, read-out: hGLP1R GTPgS Rel EC50 nM (SEM, n)

T4 sequence (P43220 24-463): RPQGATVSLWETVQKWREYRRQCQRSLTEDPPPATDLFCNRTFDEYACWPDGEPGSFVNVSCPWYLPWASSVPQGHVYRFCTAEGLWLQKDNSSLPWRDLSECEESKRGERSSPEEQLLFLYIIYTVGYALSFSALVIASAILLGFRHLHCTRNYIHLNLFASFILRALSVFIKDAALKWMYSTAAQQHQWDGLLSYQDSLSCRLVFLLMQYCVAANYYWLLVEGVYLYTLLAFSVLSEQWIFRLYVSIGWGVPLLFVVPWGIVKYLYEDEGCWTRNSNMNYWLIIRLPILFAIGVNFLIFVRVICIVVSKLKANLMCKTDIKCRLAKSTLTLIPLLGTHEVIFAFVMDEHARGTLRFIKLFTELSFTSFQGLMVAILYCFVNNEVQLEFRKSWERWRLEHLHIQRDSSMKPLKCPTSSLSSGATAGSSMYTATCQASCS
human GLP-1 receptor (GLP-1R), sequence (P43220 24-463): as above
T1 sequence (P47871 26-477): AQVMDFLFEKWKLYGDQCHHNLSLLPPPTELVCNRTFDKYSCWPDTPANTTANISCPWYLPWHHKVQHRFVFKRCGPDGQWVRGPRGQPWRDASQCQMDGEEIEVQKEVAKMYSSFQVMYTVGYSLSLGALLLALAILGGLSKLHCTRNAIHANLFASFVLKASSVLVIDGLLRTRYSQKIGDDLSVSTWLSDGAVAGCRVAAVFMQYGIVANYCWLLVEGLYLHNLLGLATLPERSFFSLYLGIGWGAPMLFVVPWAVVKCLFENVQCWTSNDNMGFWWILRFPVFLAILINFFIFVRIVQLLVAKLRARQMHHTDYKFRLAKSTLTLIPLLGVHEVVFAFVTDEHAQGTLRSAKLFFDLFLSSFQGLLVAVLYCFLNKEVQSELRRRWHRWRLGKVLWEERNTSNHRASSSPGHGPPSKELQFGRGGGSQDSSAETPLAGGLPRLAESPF

## CC[C@H](C)[C@H](NC(=O)[C@H](CC(C)C)NC(=O)[C@H](Cc1ccc(O)cc1)NC(=O)[C@H](CCC(=O)O)NC(=O)[C@@H](NC(=O)[C@H](Cc1ccccc1)NC(=O)[C@H](C)NC(=O)C(C)(C)NC(=O)[C@H](CCC(N)=O)NC(=O)[C@H](C)NC(=O)[C@H](CCCCNC(=O)COCCOCCNC(=O)COCCOCCNC(=O)CC[C@H](NC(=O)CCCCCCCCCCCCCCCCCCC(=O)O)C(=O)O)NC(=O)[C@H](CCCCN)NC(=O)[C@H](CC(=O)O)NC(=O)[C@H](CC(C)C)NC(=O)[C@](C)(CC(C)C)NC(=O)[C@@H](NC(=O)[C@H](CO)NC(=O)[C@H](Cc1ccc(O)cc1)NC(=O)[C@H](CC(=O)O)NC(=O)[C@H](CO)NC(=O)[C@@H](NC(=O)[C@](C)(Cc1ccccc1F)NC(=O)[C@@H](NC(=O)CNC(=O)[C@H](CCC(=O)O)NC(=O)C(C)(C)NC(=O)[C@H](N)Cc1ccc(O)cc1)[C@@H](C)O)[C@@H](C)O)[C@@H](C)CC)[C@@H](C)CC)C(=O)N[C@@H](CCC(=O)O)C(=O)NCC(=O)NCC(=O)N1CCC[C@H]1C(=O)N[C@@H](CO)C(=O)N[C@@H](CO)C(=O)NCC(=O)N[C@@H](C)C(=O)N1CCC[C@H]1C(=O)N1CCC[C@H]1C(=O)N1CCC[C@H]1C(=O)N[C@@H](CO)C(N)=O [Example 336]
Human Gcg receptor
  Ki: 17.1 nM
Human GIP receptor
  Ki: 0.0277 nM
[1]
  EC50: 0.0874 nM
[2]
  EC50: 0.0312 nM
Human GLP-1R [3]
  Ki: 2.44 nM
Human GLP-1R [4]
  EC50: 0.00778 µM
  hGLP1R B-Arrestin2 % Top: 82.5%
Human GLP-1R [5]
  EC50: 0.377 nM

## CC[C@H](C)[C@H](NC(=O)[C@H](CC(C)C)NC(=O)[C@H](Cc1ccc(O)cc1)NC(=O)[C@H](CCC(=O)O)NC(=O)[C@@H](NC(=O)[C@H](Cc1ccccc1)NC(=O)[C@H](C)NC(=O)C(C)(C)NC(=O)[C@H](CCC(N)=O)NC(=O)[C@H](C)NC(=O)[C@H](CCCCNC(=O)COCCOCCNC(=O)COCCOCCNC(=O)CC[C@H](NC(=O)CCCCCCCCCCCCCCCCCCC(=O)O)C(=O)O)NC(=O)[C@H](CCCCN)NC(=O)[C@H](CC(=O)O)NC(=O)[C@H](CC(C)C)NC(=O)[C@](C)(CC(C)C)NC(=O)[C@@H](NC(=O)[C@H](CO)NC(=O)[C@H](Cc1ccc(O)cc1)NC(=O)[C@H](CC(=O)O)NC(=O)[C@H](CO)NC(=O)[C@@H](NC(=O)[C@H](Cc1ccccc1)NC(=O)[C@@H](NC(=O)CNC(=O)[C@H](CCC(=O)O)NC(=O)C(C)(C)NC(=O)[C@@H](N)Cc1ccccc1)[C@@H](C)O)[C@@H](C)O)[C@@H](C)CC)[C@@H](C)CC)C(=O)N[C@@H](C)C(=O)NCC(=O)NCC(=O)N1CCC[C@H]1C(=O)N[C@@H](CO)C(=O)N[C@@H](CO)C(=O)NCC(=O)N[C@@H](C)C(=O)N1CCC[C@H]1C(=O)N1CCC[C@H]1C(=O)N1CCC[C@H]1C(=O)N[C@@H](CO)C(N)=O [Example 337] (H-F[Aib]EGTFTSDYSI[αMeL]LDKK([AEEA-AEEA-γGlu-C20 diacid])AQ[Aib]AFIEYLIAGGPSSGAPPPS-NH2)
Human Gcg receptor; [6]
  Ki: 335 nM
Human GIP receptor; [7]
  Ki: 0.0363 nM
[1]; [8]
  EC50: 0.173 nM
[2]; [9]
  EC50: 0.0515 nM
Human GLP-1R [3]; [10]
  Ki: 1.61 nM
Human GLP-1R [4]; [11]
  EC50: 0.0174 µM
Human GLP-1R [4]
  hGLP1R B-Arrestin2 % Top: 34.1%
Human GLP-1R [5]; [12]
  EC50: 0.322 nM

## CC[C@H](C)[C@H](NC(=O)[C@H](CC(C)C)NC(=O)[C@H](Cc1ccc(O)cc1)NC(=O)[C@H](CCC(=O)O)NC(=O)[C@@H](NC(=O)[C@H](Cc1ccccc1)NC(=O)[C@H](CCC(=O)O)NC(=O)C(C)(C)NC(=O)[C@H](CCC(N)=O)NC(=O)[C@H](C)NC(=O)[C@H](CCCCNC(=O)COCCOCCNC(=O)COCCOCCNC(=O)CC[C@H](NC(=O)CCCCCCCCCCCCCCCCCCC(=O)O)C(=O)O)NC(=O)[C@H](CCC(=O)O)NC(=O)[C@H](CC(=O)O)NC(=O)[C@H](CC(C)C)NC(=O)[C@](C)(CC(C)C)NC(=O)[C@@H](NC(=O)[C@H](CO)NC(=O)[C@H](Cc1ccc(O)cc1)NC(=O)[C@H](CC(=O)O)NC(=O)[C@H](CO)NC(=O)[C@@H](NC(=O)[C@H](Cc1ccccc1)NC(=O)[C@@H](NC(=O)CNC(=O)[C@H](CCC(=O)O)NC(=O)C(C)(C)NC(=O)[C@@H](N)Cc1ccc(O)cc1)[C@@H](C)O)[C@@H](C)O)[C@@H](C)CC)[C@@H](C)CC)C(=O)N[C@@H](C)C(=O)NCC(=O)NCC(=O)N1CCC[C@H]1C(=O)N[C@@H](CO)C(=O)N[C@@H](CO)C(=O)NCC(=O)N[C@@H](C)C(=O)N1CCC[C@H]1C(=O)N1CCC[C@H]1C(=O)N1CCC[C@H]1C(=O)N[C@@H](CO)C(N)=O [Example 331] (H-Y[Aib]EGTFTSDYSI[αMeL]LDEK([AEEA-AEEA-γGlu-C20 diacid])AQ[Aib]EFIEYLIAGGPSSGAPPPS-NH2)
Human Gcg receptor; [6]
  Ki: > 969 nM
Human GIP receptor; [7]
  Ki: 0.0851 nM
[1]; [8]
  EC50: 0.0929 nM
[2]; [9]
  EC50: 0.0547 nM
Human GLP-1R [3]; [10]
  Ki: 11.4 nM
Human GLP-1R [4]; [11]
  EC50: 0.0128 µM
Human GLP-1R [4]
  hGLP1R B-Arrestin2 % Top: 44.3%
Human GLP-1R [5]; [12]
  EC50: 0.375 nM

## CC[C@H](C)[C@H](NC(=O)[C@H](CC(C)C)NC(=O)[C@H](Cc1ccc(O)cc1)NC(=O)[C@H](CCC(=O)O)NC(=O)[C@@H](NC(=O)[C@H](Cc1ccccc1)NC(=O)[C@H](CC(=O)O)NC(=O)C(C)(C)NC(=O)[C@H](CCC(N)=O)NC(=O)[C@H](C)NC(=O)[C@H](CCCCNC(=O)COCCOCCNC(=O)COCCOCCNC(=O)CC[C@H](NC(=O)CCCCCCCCCCCCCCCCCCC(=O)O)C(=O)O)NC(=O)[C@H](CCC(=O)O)NC(=O)[C@H](CC(=O)O)NC(=O)[C@H](CC(C)C)NC(=O)[C@](C)(CC(C)C)NC(=O)[C@@H](NC(=O)[C@H](CO)NC(=O)[C@H](Cc1ccc(O)cc1)NC(=O)[C@H](CC(=O)O)NC(=O)[C@H](CO)NC(=O)[C@@H](NC(=O)[C@H](Cc1ccccc1)NC(=O)[C@@H](NC(=O)CNC(=O)[C@H](CCC(=O)O)NC(=O)C(C)(C)NC(=O)[C@@H](N)Cc1ccc(O)cc1)[C@@H](C)O)[C@@H](C)O)[C@@H](C)CC)[C@@H](C)CC)C(=O)N[C@@H](C)C(=O)NCC(=O)NCC(=O)N1CCC[C@H]1C(=O)N[C@@H](CO)C(=O)N[C@@H](CO)C(=O)NCC(=O)N[C@@H](C)C(=O)N1CCC[C@H]1C(=O)N1CCC[C@H]1C(=O)N1CCC[C@H]1C(=O)N[C@@H](CO)C(N)=O [Example 344] (H-Y[Aib]EGTFTSDYSI[αMeL]LDEK([AEEA-AEEA-γGlu-C20 diacid])AQ[Aib]DFIEYLIAGGPSSGAPPPS-NH2)
Human Gcg receptor; [6]
  Ki: > 1080 nM
Human GIP receptor; [7]
  Ki: 0.0507 nM
[1]; [8]
  EC50: 0.044 nM
[2]; [9]
  EC50: 0.0433 nM
Human GLP-1R [3]; [10]
  Ki: 14.8 nM
Human GLP-1R [4]; [11]
  EC50: 0.0343 µM
Human GLP-1R [4]
  hGLP1R B-Arrestin2 % Top: 46%
Human GLP-1R [5]; [12]
  EC50: 0.423 nM
